A short description of assay [1]: Antiproliferative activity against human K562/4 cells after 72 hrs by MTT assay. The conditions noted are these: K562/4, 72 h. On the technique in general: Tetrazolium assays rely on reduction of a dye to a coloured formazan, in cell work by metabolically active cells.
Assay [2] has as its system L1210. The assay can be described thus: cells. The settings on record: Mus musculus, L1210, 48 h.
Description: Antiproliferative activity against mouse L1210 cells after 48 hrs by MTT assay
In assay [3] the test system is K562. The assay can be described thus: cells. The settings on record: Homo sapiens, K562, 72 h.
Description: Antiproliferative activity against human K562 cells after 72 hrs by MTT assay
The subject of assay [4] is HeLa. Put plainly: Antiproliferative activity against human HeLa cells after 72 hrs by MTT assay. It is filed as functional, cell-based.
A short description of assay [5]: cells. The conditions noted are these: Homo sapiens, HCT-116, 72 h.
Description: Antiproliferative activity against human HCT116 cells after 72 hrs by MTT assay
Assay [6] concerns the target T1, DNA topoisomerase 1 (Homo sapiens) (UniProt P11387).
T1 sequence (whole entry): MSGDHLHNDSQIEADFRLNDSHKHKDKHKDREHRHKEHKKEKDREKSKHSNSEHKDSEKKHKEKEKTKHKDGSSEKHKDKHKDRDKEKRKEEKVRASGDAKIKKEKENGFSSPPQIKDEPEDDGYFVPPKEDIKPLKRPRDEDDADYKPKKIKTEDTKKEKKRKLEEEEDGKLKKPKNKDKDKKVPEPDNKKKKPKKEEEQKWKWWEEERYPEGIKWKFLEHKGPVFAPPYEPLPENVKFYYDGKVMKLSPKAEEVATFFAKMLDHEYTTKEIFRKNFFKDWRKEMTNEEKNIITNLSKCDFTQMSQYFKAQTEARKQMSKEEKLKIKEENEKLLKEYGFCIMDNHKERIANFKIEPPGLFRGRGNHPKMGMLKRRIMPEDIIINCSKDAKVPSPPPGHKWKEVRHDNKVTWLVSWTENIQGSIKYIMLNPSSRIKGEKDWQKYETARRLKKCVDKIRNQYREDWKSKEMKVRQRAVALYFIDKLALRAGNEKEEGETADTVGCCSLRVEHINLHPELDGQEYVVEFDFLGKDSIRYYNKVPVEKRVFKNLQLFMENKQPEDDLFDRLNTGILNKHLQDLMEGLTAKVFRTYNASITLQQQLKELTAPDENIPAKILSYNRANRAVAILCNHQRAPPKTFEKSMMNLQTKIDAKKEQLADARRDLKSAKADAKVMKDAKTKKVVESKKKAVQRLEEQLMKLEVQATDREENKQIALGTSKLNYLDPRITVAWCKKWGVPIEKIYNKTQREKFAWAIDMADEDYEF
The assay can be described thus: Poisoning activity at topoisomerase 1 (unknown origin) using 3'-[32P]dGTP labelled 117bp oligonucleotide assessed as induction of DNA cleavage at 1 uM incubated for 20 mins by SDS-PAGE analysis.

Assay [7] concerns K562. The assay can be described thus: Binding affinity to P-gp in human K562 cells assessed as drug accumulation at 1 uM incubated for 1 to 24 hrs by flow cytometry. It is filed as cell-based. (A flow cytometer gives signals particle by particle.)
Assay [8] has as its system Calf thymus DNA. The assay can be described thus: Binding affinity to calf thymus DNA at 5 uM by fluorescence assay. It is filed as nucleic-acid assay. The settings on record: Bos taurus.
Assay [9] relates to K562/4. Put plainly: Binding affinity to P-gp in human K562/4 cells assessed as drug accumulation at 1 uM incubated for 1 to 24 hrs by flow cytometry. The format is cell-based.
Assay [10] has as its target T1, DNA topoisomerase 1 (Homo sapiens). Put plainly: Poisoning activity at topoisomerase 1 (unknown origin) using 3'-[32P]dGTP labelled 117bp oligonucleotide assessed as induction of DNA cleavage incubated for 20 mins by SDS-PAGE analysis.

Activity calls are given as the source filed them. No cut-off for these calls is given here.

The IC50 is the concentration that gives 50% inhibition. High values mean a need for much substance, low ones inhibition by little substance. `Cc1oc2c(O)c3c(c(O)c2c1C(=O)N1CCCC(N)C1)C(=O)c1ccccc1C3=O` (centres undefined): the IC50 in assay [1] amounted to 700 nM; in [2], 5600 nM; in assay [3], 850 nM; in assay [4], 1400 nM; in assay [5] it was 1500 nM.

As for `Cc1oc2c(O)c3c(c(O)c2c1C(=O)N[C@@H]1CCNC1)C(=O)c1ccccc1C3=O`, the IC50 in [1] is 750 nM; in assay [2] it was 5400 nM; in [3], 700 nM; in assay [4], 9500 nM; in assay [5] it was 300 nM.

As to `COc1cc2c3c(n(CCCNCCO)c(=O)c2cc1OC)-c1cc2c(cc1C3=O)OCO2`, the outcome in assay [6] was Active.

On to `Cc1oc2c(O)c3c(c(O)c2c1C(=O)NC1CN2CCC1CC2)C(=O)c1ccccc1C3=O` (centres undefined), for which the IC50 in assay [1] was found to be 650 nM; in assay [2] it was 2400 nM; in assay [3], 600 nM; in assay [4] it was 12000 nM; in [5], 900 nM.

With `Cc1oc2c(O)c3c(c(O)c2c1C(=O)N1CCN(C)CC1)C(=O)c1ccccc1C3=O`, the 50% inhibitory concentration (IC50) in [1] is 5900 nM; in [2] it was 82000 nM; in [3], 1600 nM; in assay [4], 104000 nM; in [5], 11500 nM.

`Cc1oc2c(O)c3c(c(O)c2c1C(=O)N[C@H]1CCNC1)C(=O)c1ccccc1C3=O`: the IC50 was 800 nM in assay [1]; 6500 nM in assay [2]; 750 nM in assay [3]; 64000 nM in assay [4]; 250 nM in assay [5].

Take `COc1cccc2c1C(=O)c1c(O)c3c(c(O)c1C2=O)C[C@@](O)(C(=O)CO)C[C@@H]3O[C@H]1C[C@H](N)[C@H](O)[C@H](C)O1`: in [7], the result was inactive. For the same compound, the result in assay [8] and in assay [9] was Active.

As to `Cc1oc2c(O)c3c(c(O)c2c1C(=O)N1CCNC(C)C1)C(=O)c1ccccc1C3=O` (centres undefined), the IC50 in [1] amounted to 3000 nM; in [2], 3700 nM; in assay [3], 900 nM; in [4], 900 nM; in assay [5], 1300 nM.

Take `Cc1oc2c(O)c3c(c(O)c2c1C(=O)N1CCNCC1)C(=O)c1ccccc1C3=O`: the IC50 in assay [1] amounted to 2800 nM; in [2], 4100 nM; in [3] it was 1300 nM; in [4], 3100 nM; in assay [5], 2300 nM.

Consider `Cc1oc2c(O)c3c(c(O)c2c1C(=O)NC1CCNCC1)C(=O)c1ccccc1C3=O`, for which the IC50 in assay [1] stood at 4000 nM; in assay [2], 5100 nM; in assay [3] it was 2700 nM; in assay [4], 11000 nM; in assay [5] it was 1200 nM.

Consider `Cc1oc2c(O)c3c(c(O)c2c1C(=O)NC1CCCNC1)C(=O)c1ccccc1C3=O` (centres undefined), for which the IC50 in assay [1] was 350 nM; in assay [2], 3000 nM; in assay [3], 600 nM; in [4], 3400 nM; in [5] it was 1600 nM.

With `CC[C@@]1(O)C(=O)OCc2c1cc1n(c2=O)Cc2cc3ccccc3nc2-1`, in assay [6], the outcome was Active.

With `Cc1oc2c(O)c3c(c(O)c2c1C(=O)N1CCC(N)CC1)C(=O)c1ccccc1C3=O`, the IC50 was determined as 400 nM in assay [1]; 13000 nM in [2]; 2100 nM in assay [3]; 9700 nM in assay [4]; 2000 nM in [5].

Take `O=C1c2ccccc2C(=O)c2c1c(O)c1[nH]cc(CN[C@@H]3CCNC3)c1c2O`: the values for the IC50 in assay [1], in [2] and in assay [5] were 400 nM, 70 nM and 1600 nM, respectively. In addition, the outcome in assay [10] was Active.

As to `Cc1oc2c(O)c3c(c(O)c2c1C(=O)N1CCNCC1C)C(=O)c1ccccc1C3=O` (centres undefined), the concentration for half-maximal inhibition (IC50) in assay [1] was 4800 nM; in assay [2], 3700 nM; in assay [3] it was 1100 nM; in assay [4] it was 700 nM; in [5], 1600 nM.

The values above are taken from ChEMBL document CHEMBL3774310, “Discovery of antitumor anthra[2,3-b]furan-3-carboxamides: Optimization of synthesis and evaluation of antitumor properties” (Eur J Med Chem, 2016).
